The values that follow come from patent US11149023B2, “Substituted triazole derivatives and uses thereof” (Bayer Pharma Aktiengesellschaft, priority 2017, dated 2021).

In one experiment the target is human V1a receptor (Homo sapiens (Human), UniProt P37288). The experiment can be described thus: Cellular in vitro assay for determining vasopressin receptor activity (V1a, aequorin luminescence). Format: cell-based. Particulars: for IC50: CHO cell line transfected with human V1a receptor, [Arg8]-vasopressin at EC50 concentration, read-out: IC50 hV1a; for ratio IC50 hV2/hV1a: selectivity, IC50 hV2 divided by IC50 hV1a. As to the method:
(§1) B-1. Cellular In Vitro Assay for Determining Vasopressin Receptor Activity
(§2) The identification of agonists and antagonists of the V1a and V2 vasopressin receptors from humans, rats and dogs as well as the quantification of the activity of the compounds of the invention is carried out using recombinant cell lines. These cell lines originally derive from a hamster's ovary epithelial cell (Chinese Hamster Ovary, CHO K1, ATCC: American Type Culture Collection, Manassas, Va. 20108, USA). The test cell lines constitutively express the human, rat or dog V1a or V2 receptors. In case of the Gαq-coupled V1a receptors, cells are also stably transfected with a modified form of the calcium-sensitive photoproteins aequorin (human and rat V1a) or obe-lin (dog V1a), which, after reconstitution with the cofactor coelenterazine, emit light when there are increases in free calcium concentrations [Rizzuto R, Simpson A W, Brini M, Pozzan T, Nature 358, 325-327 (1992); Illarionov B A, Bondar V S, Illarionova V A, Vysotski E S, Gene 153 (2), 273-274 (1995)]. The resulting vasopressin receptor cells react to stimulation of the recombinantly expressed Via receptors by intracellular release of calcium ions, which can be quantified by the resulting photoprotein luminescence. The Gs-coupled V2 receptors are stably transfected into cell lines expressing the gene for firefly luciferase under control of a CRE-responsible promoter. Activation of V2 receptors induces the activation of the CRE-responsive promoter via cAMP increase, thereby inducing the expression of firefly luciferase. The light emitted by photoproteins of V1a cell lines as well as the light emitted by firefly luciferase of V2 cell lines corresponds to the activation or inhibition of the respective vasopressin receptor. The bioluminescence of the cell lines is detected using a suitable luminometer [Milligan G, Marshall F, Rees S, Trends in Pharmacological Sciences 17, 235-237 (1996)].
Vasopressin V1a Receptor Cell Lines:
On the day before the assay, the cells are plated out in culture medium (DMEM/F12, 2% FCS, 2 mM glutamine, 10 mM HEPES, 5 μg/ml coelenterazine) in 384-well microtiter plates and kept in a cell incubator (96% humidity, 5% v/v CO2, 37° C.). On the day of the assay, test compounds in various concentrations are placed for 10 minutes in the wells of the microtiter plate before the agonist [Arg^8]-vasopressin at EC50 concentration is added. The resulting light signal is measured immediately in a luminometer.
(§3) Table 1A below lists individual IC50 values for the compounds of the invention (including racemic mixtures as well as separated enantiomers) that were obtained from cell lines transfected with the human Via or V2 receptor: […]

Another experiment has as its target human V2 receptor (Homo sapiens (Human), UniProt P30518). Kind of experiment: Cellular in vitro assay for determining vasopressin receptor activity (V2, CRE-luciferase). Format: cell-based. The following applies: CHO cell line transfected with human V2 receptor; [Arg8]-vasopressin at EC50 concentration; read-out: IC50 hV2. As to the method:
as §1, §2
Vasopressin V2 Receptor Cell Lines:
On the day before the assay, the cells are plated out in culture medium (DMEM/F12, 2% FCS, 2 mM glutamine, 10 mM HEPES) in 384-well microtiter plates and kept in a cell incubator (96% humidity, 5% v/v CO2, 37° C.). On the day of the assay, test compounds in various concentrations and the agonist [Arg^8]-vasopressin at EC50 concentration are added together to the wells, and plates are incubated for 3 hours in a cell incubator. Upon addition of the cell lysis reagent Triton™ and the substrate luciferin, luminescence of firefly luciferase is measured in a luminometer.
as §3

Sequence of human V1a receptor (P37288 whole entry): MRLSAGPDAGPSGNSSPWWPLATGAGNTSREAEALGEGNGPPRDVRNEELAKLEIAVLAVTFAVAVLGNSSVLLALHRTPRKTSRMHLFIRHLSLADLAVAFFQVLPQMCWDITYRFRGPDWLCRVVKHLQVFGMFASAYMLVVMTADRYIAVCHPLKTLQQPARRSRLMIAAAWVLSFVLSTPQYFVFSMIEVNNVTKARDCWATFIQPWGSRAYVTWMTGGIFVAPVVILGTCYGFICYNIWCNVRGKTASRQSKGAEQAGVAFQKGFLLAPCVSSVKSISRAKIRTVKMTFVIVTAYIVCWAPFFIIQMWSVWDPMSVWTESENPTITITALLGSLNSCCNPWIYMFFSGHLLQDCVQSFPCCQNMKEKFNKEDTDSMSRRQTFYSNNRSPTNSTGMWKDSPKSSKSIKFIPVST
Sequence of human V2 receptor (P30518 whole entry): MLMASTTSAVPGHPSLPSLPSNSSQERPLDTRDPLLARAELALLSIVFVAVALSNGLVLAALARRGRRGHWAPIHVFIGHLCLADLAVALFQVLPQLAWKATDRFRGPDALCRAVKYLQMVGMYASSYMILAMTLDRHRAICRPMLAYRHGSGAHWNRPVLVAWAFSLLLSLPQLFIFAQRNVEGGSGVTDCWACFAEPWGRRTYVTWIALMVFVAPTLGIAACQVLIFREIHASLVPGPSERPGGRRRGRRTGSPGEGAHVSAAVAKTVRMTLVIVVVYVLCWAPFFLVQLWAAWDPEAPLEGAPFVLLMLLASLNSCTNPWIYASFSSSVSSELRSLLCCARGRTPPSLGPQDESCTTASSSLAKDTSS

On to `O=C(CCC(F)(F)F)NC(Cn1c(-c2ccc(Cl)cc2)nn(Cc2ncn(-c3ncccc3Cl)n2)c1=O)C(F)(F)F` (single isomer, unassigned) [Example 34, N-{3-[3-(4-Chlorophenyl)-1-{[1-(3-chloropyridin-2-yl)-1H-1,2,4-triazol-3-yl]methyl}-5-oxo-1,5-dihydro-4H-1,2,4-triazol-4-yl]-1,1,1-trifluoropropan-2-yl}-4,4,4-trifluorobutanamide], for which the IC50 was 0.82 nM at human V1a receptor and 33.5 nM at human V2 receptor. On to `O=C(NC(Cn1c(-c2ccc(Cl)cc2)nn(Cc2ncn(-c3ncccc3C(F)(F)F)n2)c1=O)C(F)(F)F)C1CS(=O)(=O)C1` (racemic) [Example 62, N-{3-[3-(4-Chlorophenyl)-5-oxo-1-({1-[3-(trifluoromethyl)pyridin-2-yl]-1H-1,2,4-triazol-3-yl}methyl)-1,5-dihydro-4H-1,2,4-triazol-4-yl]-1,1,1-trifluoropropan-2-yl}-1,1-dioxo-1lambda^6-thietane-3-carboxamide], for which the IC50 at human V1a receptor is 1.6 nM; at human V2 receptor it was 165 nM. The “ratio IC50 hV2/hV1a” value on human V1a receptor amounted to 103.1. The corresponding values for `O=C(CCC(F)(F)F)NC(Cn1c(-c2ccc(Cl)cc2)nn(Cc2ncn(-c3ncccc3C(F)(F)F)n2)c1=O)C(F)(F)F` (racemic) [Example 59, N-{3-[3-(4-Chlorophenyl)-5-oxo-1-({1-[3-(trifluoromethyl)pyridin-2-yl]-1H-1,2,4-triazol-3-yl}methyl)-1,5-dihydro-4H-1,2,4-triazol-4-yl]-1,1,1-trifluoropropan-2-yl}-4,4,4-trifluorobutanamide] are 1.9 nM, 75 nM and 39.5.

Regarding `O=C(NC(Cn1c(-c2ccc(Cl)cc2)nn(Cc2ncn(-c3ncccc3Cl)n2)c1=O)C(F)(F)F)C1CC1C(F)(F)F` (centres unmarked) [Example 18, N-{3-[3-(4-Chlorophenyl)-1-{[1-(3-chloropyridin-2-yl)-1H-1,2,4-triazol-3-yl]methyl}-5-oxo-1,5-dihydro-4H-1,2,4-triazol-4-yl]-1,1,1-trifluoropropan-2-yl}-2-(trifluoromethyl)cyclopropanecarboxamide], the IC50 at human V1a receptor was found to be 2.5 nM; at human V2 receptor it was 33.5 nM. Moreover, at human V1a receptor, the “ratio IC50 hV2/hV1a” value came to 13.4. In the same order, the values of `O=C(NC(Cn1c(-c2ccc(Cl)cc2)nn(Cc2ncn(-c3ncccc3Cl)n2)c1=O)C(F)(F)F)c1ccc(Cl)s1` (racemic) [Example 52, 5-Chloro-N-{3-[3-(4-chlorophenyl)-1-{[1-(3-chloropyridin-2-yl)-1H-1,2,4-triazol-3-yl]methyl}-5-oxo-1,5-dihydro-4H-1,2,4-triazol-4-yl]-1,1,1-trifluoropropan-2-yl}thiophene-2-carboxamide] are 2.8 nM, 470 nM and 167.9.

For `O=C(NC(Cn1c(-c2ccc(Cl)cc2)nn(Cc2ncn(-c3ncccc3Cl)n2)c1=O)C(F)(F)F)C1CCO1` (centres unmarked) [Example 3, N-{3-[3-(4-Chlorophenyl)-1-{[1-(3-chloropyridin-2-yl)-1H-1,2,4-triazol-3-yl]methyl}-5-oxo-1,5-dihydro-4H-1,2,4-triazol-4-yl]-1,1,1-trifluoropropan-2-yl}oxetane-2-carboxamide], the figures for the IC50 on human V1a receptor and at human V2 receptor were 4.1 nM and 445 nM, respectively. Besides, the “ratio IC50 hV2/hV1a” value on human V1a receptor amounted to 108.5.

In the case of `O=C(NC(Cn1c(-c2ccc(Cl)cc2)nn(Cc2ncn(-c3ncccc3Cl)n2)c1=O)C(F)(F)F)C1CS(=O)(=O)C1` (racemic) [Example 40, N-{3-[3-(4-Chlorophenyl)-1-{[1-(3-chloropyridin-2-yl)-1H-1,2,4-triazol-3-yl]methyl}-5-oxo-1,5-dihydro-4H-1,2,4-triazol-4-yl]-1,1,1-trifluoropropan-2-yl}thietane-3-carboxamide 1,1-dioxide], at human V1a receptor, the “ratio IC50 hV2/hV1a” value amounted to 26.7. The same measure, in the same setting: the result for `CS(=O)(=O)CC(=O)NC(Cn1c(-c2ccc(Cl)cc2)nn(Cc2ncn(-c3ncccc3Cl)n2)c1=O)C(F)(F)F` (racemic) [Example 46, N-{3-[3-(4-Chlorophenyl)-1-{[1-(3-chloropyridin-2-yl)-1H-1,2,4-triazol-3-yl]methyl}-5-oxo-1,5-dihydro-4H-1,2,4-triazol-4-yl]-1,1,1-trifluoropropan-2-yl}-2-(methylsulfonyl)acetamide] reads 42.8; that for `O=C(NC(Cn1c(-c2ccc(Cl)cc2)nn(Cc2ncn(-c3ncccc3Cl)n2)c1=O)C(F)(F)F)[C@@H]1C[C@H](F)CN1` (stereo in doubt) [Example 48, N-{3-[3-(4-Chlorophenyl)-1-{[1-(3-chloropyridin-2-yl)-1H-1,2,4-triazol-3-yl]methyl}-5-oxo-1,5-dihydro-4H-1,2,4-triazol-4-yl]-1,1,1-trifluoropropan-2-yl}-4-fluoro-prolinamide], 56.5. As to `CS(=O)(=O)CC(=O)NC(Cn1c(-c2ccc(Cl)cc2)nn(Cc2ncn(-c3ncccc3Cl)n2)c1=O)C(F)(F)F` (racemic) [Example 45, N-{3-[3-(4-Chlorophenyl)-1-{[1-(3-chloropyridin-2-yl)-1H-1,2,4-triazol-3-yl]methyl}-5-oxo-1,5-dihydro-4H-1,2,4-triazol-4-yl]-1,1,1-trifluoropropan-2-yl}-2-(methylsulfonyl)acetamide], the “ratio IC50 hV2/hV1a” value on human V1a receptor is recorded as 9.8. In the case of `O=C(NC(Cn1c(-c2ccc(Cl)cc2)nn(Cc2ncn(-c3ncccc3Cl)n2)c1=O)C(F)(F)F)C1CS(=O)(=O)C1` (racemic) [Example 39, N-{3-[3-(4-Chlorophenyl)-1-{[1-(3-chloropyridin-2-yl)-1H-1,2,4-triazol-3-yl]methyl}-5-oxo-1,5-dihydro-4H-1,2,4-triazol-4-yl]-1,1,1-trifluoropropan-2-yl}thietane-3-carboxamide 1,1-dioxide], the “ratio IC50 hV2/hV1a” value at human V1a receptor stood at 110.9. Turning to `O=C(NC(Cn1c(-c2ccc(Cl)cc2)nn(Cc2ncn(-c3ncccc3Cl)n2)c1=O)C(F)(F)F)[C@@H]1C[C@@H](F)CN1` (stereo in doubt) [Example 49, N-{3-[3-(4-Chlorophenyl)-1-{[1-(3-chloropyridin-2-yl)-1H-1,2,4-triazol-3-yl]methyl}-5-oxo-1,5-dihydro-4H-1,2,4-triazol-4-yl]-1,1,1-trifluoropropan-2-yl}-4-fluoro-prolinamide], at human V1a receptor, the “ratio IC50 hV2/hV1a” value was 112.7.

`O=C(CCC(F)(F)F)NC(Cn1c(-c2ccc(Cl)cc2)nn(Cc2ncn(-c3ncccc3Cl)n2)c1=O)C(F)(F)F` (racemic) [Example 33, N-{3-[3-(4-Chlorophenyl)-1-{[1-(3-chloropyridin-2-yl)-1H-1,2,4-triazol-3-yl]methyl}-5-oxo-1,5-dihydro-4H-1,2,4-triazol-4-yl]-1,1,1-trifluoropropan-2-yl}-4,4,4-trifluorobutanamide]: the “ratio IC50 hV2/hV1a” value at human V1a receptor was determined as 26.1. On the same count and under the same terms, the result for `O=C(CCC(F)(F)F)NC(Cn1c(-c2ccc(Cl)cc2)nn(Cc2ncn(-c3ncccc3Cl)n2)c1=O)C(F)(F)F` (racemic) [Example 34, N-{3-[3-(4-Chlorophenyl)-1-{[1-(3-chloropyridin-2-yl)-1H-1,2,4-triazol-3-yl]methyl}-5-oxo-1,5-dihydro-4H-1,2,4-triazol-4-yl]-1,1,1-trifluoropropan-2-yl}-4,4,4-trifluorobutanamide] reads 40.9. The same measure, in the same setting: the same measure for `O=C(NC(Cn1c(-c2ccc(Cl)cc2)nn(Cc2ncn(-c3ncccc3Cl)n2)c1=O)C(F)(F)F)C1(C(F)(F)F)CC1` (centres unmarked) [Example 42, N-{3-[3-(4-Chlorophenyl)-1-{[1-(3-chloropyridin-2-yl)-1H-1,2,4-triazol-3-yl]methyl}-5-oxo-1,5-dihydro-4H-1,2,4-triazol-4-yl]-1,1,1-trifluoropropan-2-yl}-1-(trifluoromethyl)cyclopropane-carboxamide]: 9.0.

The term IC50 denotes the concentration at which inhibition is half-maximal.
